What was measured:
[1] = tested on: Acetyl-CoA Oxidase (ACO); experiment: ACO mRNA (PPARα regulated gene) by RT-PCR in HepG2 cells; assay type: cell-based, human; details: HepG2, dose dependent and time dependent
Description: ACO is a PPAR-α regulated gene. HepG2 cells were stimulated by INV 75 (100 μM) for the indicated time, the mRNA expression level of ACO was analyzed by real-time RT-PCR. n=3. *, p<0.05 vs 0.
Cells were stimulated with INV-75 for 4 hours, and mRNA expression level of acetyl co-enzyme A oxidase (ACO) analyzed by real-time RT-PCR. n=3. *, p<0.05 vs −8.5.
We used a reporter gene assay in HepG2 cells to screen for agonists of the peroxisome proliferator-activated receptors. Peroxisome proliferator-activated receptors (PPARs) and other members of the nuclear hormone receptor family are important drug targets for the treatment of metabolic diseases. PPARs play crucial roles in lipid and glucose metabolism, respectively. Therefore, screening methods that help to rapidly identify activators of these receptors should be of considerable value. INV-75 activated a classic PPARα gene, Acetyl-CoA Oxidase (ACO) in a dose dependent and time dependent fashion (FIG. 6A). The time course experiment was performed in presence of INV-75 up to 15 hours. […] We next tested the specificity of INV-75 for PPARα by performing experiments in HepG2 cells transfected with yeast GAL4-PPARα-LBD plasmid+UAS-Luciferase; GAL4-PPARδ-LBD plasmid+UAS-Luciferase and GAL4-PPARα-LBD plasmid+UAS-Luciferase. […]

[2] = tested on: Watanabe Heritable Hyperlipidemic Rabbits (WHHL); experiment: MRI of abdominal aortic wall volume in WHHL rabbits; assay type: in vivo, rabbit
Description: In vivo experiments on hypercholesterolemic rabbits (Watanabe Heritable Hyperlipidemic Rabbits, WHHL) were performed in 6 rabbits treated with INV-75. Four rabbits served as controls.
Animal Model: WHHL rabbits weighing approximately 2 kg at 2 months were purchased from Brown Family in Alabama and housed in the institutional Laboratory Animal Center. Rabbits at the age of 6 months were used for all experiments. Rabbits were allowed free access to water and were fed a high cholesterol chow (2% cholesterol) from Harlan Tekad TD 7251. The animal care and experimental protocols were in accordance with nationally approved guidelines. The protocol that the rabbits were subjected to is outlined in FIG. 7. INV-75 was dissolved in 90% ethanol and sprayed on the high fat chow. The diet-drug mixture was then vacuum dried overnight to remove ethanol and then used to feed rabbits.
Each animal underwent three MRI studies: the first one prior to high fat feeding (baseline prior to drug administration); the second at the mid-point of drug therapy; and the final study after 12 weeks of drug therapy (FIG. 7). […] At the end of the study, all animals underwent an MRI study for plaque volume quantification. […]
High-resolution non-invasive MRI served to assess the degree of atherosclerosis before and after the corresponding treatments. Atherosclerotic plaque in the abdominal aorta of WHHL rabbits was analyzed by in vivo MRI scans at the indicated time points (FIG. 7). […] Plaque burden was determined by manually tracing the external elastic lamina (EEM) and the luminal border (L) and determining the area within each boundary using Siemens Viewer software. Slice volume (V) was calculated as V=(EEM-L)*4.0 and total wall volume per animal was calculated using the formula TWV=Σ[(EEM-L)*4] and expressed in mm^3. TWVs for each animal at each time point were normalized for varying numbers of readable slices with the formula NWV=(TWV/n)*m; n=number of slices readable in the individual animal and m=mean number of slices readable in all animals over all time points. […]

[3] = tested on: thoracic aorta of WHHL rabbits; experiment: Organ chamber experiments on thoracic aortic rings of WHHL rabbits; assay type: in vivo, rabbit
Description: Rabbits were euthanized by injection of lethal doses of pentobarbital. The ascending aortas was removed and 2 mm thoracic aortic rings were suspended in individual organ chambers filled with physiological salt solution buffer (sodium chloride, 130 mEq/L; potassium chloride, 4.7 mEq/L; calcium dichloride, 1.6 mEq/L; magnesium sulfate, 1.17 mEq/L; potassium diphosphate, 1.18 mEq/L; sodium bicarbonate, 14.9 mEq/L; EDTA, 0.026 mEq/L; and glucose, 99.1 mg/dL [5.5 mmol/L]; pH, 7.4), aerated continuously with 5% carbon dioxide in oxygen at 37° C. Vessels were allowed to equilibrate for at least 1 hour at a resting tension of 30 mN before being subjected to graded doses of agonists as described previously. The vasoconstrictor agonists included phenylephrine (PE), endothelin-1 (ET-1), or angiotensin II. Responses were expressed as a percentage of the peak response to 120 mEq/L of potassium chloride. The vessels subjected to PE were washed thoroughly and allowed to equilibrate for 1 hour before beginning experiments with acetylcholine, sodium nitroprusside (SNP) or insulin. […] Results were expressed as a percentage of pre-contraction by PE (0.1 μM). The rings exposed to acetylcholine were thoroughly washed and allowed to equilibrate for 1 hour. […] Results were expressed as a percentage of pre-contraction by PE (0.1 μM). INV-75 decreased aortic contraction by angiotensin II but had no effect on phenylephrine (FIG. 15 and FIG. 16).

CC(=O)Oc1cc2c(cc1[N+](=O)[O-])OCO2 [INV-75, 3,4-methylenedioxy-6-nitrophenyl acetate]
Acetyl-CoA Oxidase (ACO) gene activation [1]: activated
wall volume, abdominal aorta, MRI ([2]; 12 weeks): 0.37 cm^3
Mean normalized wall volume (NWV), abdominal aorta, MRI ([2]; baseline, prior to supplementation): 0.24 cm^3
mean plaque volume, abdominal aorta, MRI ([2]; study midpoint, 6 weeks of supplementation): 0.35 cm^3
aortic contraction by angiotensin II ([3]; in words): decreased
effect on insulin relaxation ([3]; in words): marginal (non-significant effect
effect on phenylephrine response ([3]; in words): no effect
effect on response to endothelin-1 ([3]; in words): no effects
effect on SNP response ([3]; results not shown): no effects
